Reference: US3950527A, “N-[ω-(4'-(3"-indolyl)-piperidino)-alkyl]-benzamides” (Roussel-UCLAF, priority 1974, dated 1976)

How the values were obtained:
mouse [1] = assay: Traction Test (neurosedative activity); assay type: in vivo; details: ip, 0.5 h, mice, intraperitoneal, 30 minutes after administration, dose at which 50% of the animals do not reestablish themselves in 5 seconds, read-out: DE50, Traction Test
Excerpt: This test consisted of suspending a mouse by the front paws from a horizontal metal wire and in a time of less than 5 seconds, the normal mouse will effect a reestablishment by managing to place at least one hind paw on the wire. […]

Acute toxicity = details: mouse, in vivo, ip; mice, intraperitoneal, mortality after 48 hours; read-out: DL50, acute toxicity
Description: The acute toxicity was determined by intraperitoneal administration of the test compounds to mice in increasing doses and determination of the mortality after 48 hours to determine the DL50 dose.

mouse [2] = assay: Chimney Test (neurosedative activity); assay type: in vivo; details: ip, 0.5 h, mice, intraperitoneal, 30 minutes after administration, read-out: DE50, Chimney Test
Description: This test consisted of placing a mouse in the end of a glass tube 30 cm long with a diameter adapted to the size of the mouse. The tube was straightened vertically in a rapid manner with the head of the mouse at the base. The normal uprighting time for the mouse in the tube was less than 30 seconds. The test was conducted 30 minutes after intraperitoneal administration of the test product and the DE50 dose was determined and is reported in Table I.

[3] = Antagonism to toxicity of amphetaminic compounds; assay type: in vivo; details: Mus musculus, ip; male mice, intraperitoneal 30 minutes before 15 mg/kg i.p. dexamphetamine sulfate; group mortality at 24 hours; read-out: DE50, Antagonism to toxicity of amphetamines
Description: C. Antagonism to toxicity of amphetaminic compounds
This test was determined on groups of 10 male mice in a crystallizer with a 20 cm diameter and a 9 cm height covered with a grill. The animals received an intraperitoneal injection of 15 mg/kg of dexamphetamine sulfate 30 minutes after intraperitoneal administration of the test product. The group mortality was counted 24 hours after the injection of dexamphetamine sulfate and the DE50 dose was determined.

[4] = Antagonism to stereotypes provoked by apomorphine; assay type: in vivo; details: Rattus norvegicus, ip; male rats, intraperitoneal 30 minutes before 1.5 mg intravenous apomorphine hydrochloride; read-out: DE50, antagonism to stereotypes provoked by apomorphine
Description: B. Antagonism to sterotypes provoked by apomorphine
(§1) This test used groups of 5 male rats in a test inspired by Janssen et al. [Arzn. Forsch., Vol. 15 (1965), p. 104-117 and Vol. 17 (1967), p. 841-854] with each rat in an individual grill cage. Each animal received an intravenous injection in the vein of the penis of 1.5 mg of apomorphine hydrochloride 30 minutes after intraperitoneal administration of the test compound. The animals, control and treated, were observed 1,5,10 and 15 minutes after the last injection and the stereotype movements of the buccal sphere were evaluated for their intensity on a scale of 0 to 3 as by Boissier et al. [Therapie., Vol. 25 (1970), p. 939-949]. The height of the test was determined and the DE50 dose was ascertained to be 10 mg/kg.

[5] = Antipsychotic activity, overall conclusion from the tests on the product of Example 2; details: in vivo
Description: This test consisted of using groups of 5 rats which were placed in individual grill cages. The rats received intraperitoneally 8 mg/kg of dexamphetamine sulfate 30 minutes after intraperitoneal administration of the test products and the test used controls and treated animals. The rating scale was that described by Halliwel et al. [Brit. J. Pharmacol., Vol. 23 (1964), p. 330-350] and the DE50 of the product was […].
as §1
(§2) This test was effected on dogs as reported by Chen et al. [J. Pharmac. exp. Therap. Vol. 93 (1950), p. 245-250]. […] The cross tests were repeated after 8 days on lots of 2 dogs and the DE50 dose was determined to be 0.005 mg/kg.

[6] = Antagonism to vomitting provoked by apomorphine; assay type: in vivo; details: Canis lupus familiaris, sc, 0.5 h; dogs, subcutaneous 30 minutes before 0.1 mg/kg s.c. apomorphine hydrochloride; vomitting counted over one half hour; read-out: DE50, antagonism to vomitting provoked by apomorphine
Description: C. Antagonism to vomitting provoked by apomorphine
as §2, with “245-250]. The test product was subcutaneously administered 30 minutes before subcutaneous administration of 0.1 mg/kg of apomorphine hydrochloride.” for “245-250].”

Cataleptic Power = assay type: in vivo, young rats; details: for cataleptic activity (in words): rat, in vivo
Description: D. Cataleptic Power This test is described by Boissier et al. [Therapie., Vol. 18 (1963), p. 1257-1277] and was effected on young rats by crossing the homolateral paws and noting the intensity of catalepsy. The test product was intraperitoneally administered and the DE50 was formed to be greater than 60 mg/kg.

[7] = listed as acid succinate of N-[β-(4'-(3"-indolyl)-piperidino)-ethyl]-4-fluoro-benzamide

Structure (SMILES)	ED50 (mouse [1]) [mg/kg]	LD50 at 48 h (Acute toxicity) [mg/kg]	ED50 (mouse [2]) [mg/kg]	ED50 [3] [mg/kg]	ED50 [4] [mg/kg]	antipsychotic activity (in words) [5]	antipsychotic activity (in words) [5, 7]	ED50 [6] [mg/kg]	ED50 (Cataleptic Power; Rattus norvegicus, ip, young rats, intraperitoneal, crossing the homolateral paws, read-out: DE50, cataleptic power) [mg/kg]	cataleptic activity (in words) (Cataleptic Power)	cataleptic activity (in words) (Cataleptic Power; [7])
O=C(NCCN1CCC(c2c[nH]c3ccccc23)CC1)c1ccccc1 [Example 1, N-[β-(4'-(3"-indolyl)-piperidino)-ethyl]-benzamide]	18	300	7	3							
O=C(NCCN1CCC(c2c[nH]c3ccccc23)CC1)c1ccc(F)cc1 [Example 2, N-[β-(4'-(3"-indolyl)-piperidino)-ethyl]-p-fluoro-benzamide acid succinate]	6.5	125	2	0.3	10	important antipsychotic activity	antipsychotic activity	0.005	> 60	practically devoid of cataleptigenic activity	without cataleptic properties
O=C(NCCCN1CCC(c2c[nH]c3ccccc23)CC1)c1ccc(F)cc1 [Example 3, N-[γ-(4'-(3"-indolyl)-piperidino)-propyl]-p-fluorobenzamide]	20	60	5	8							
COc1cc(F)ccc1C(=O)NCCN1CCC(c2c[nH]c3ccccc23)CC1 [Example 4, N-[β-(4'-(3"-indolyl)-piperidino)-ethyl]-p-fluoro-o-methoxy-benzamide]	8.5	> 800	4.5	0.35							
COc1ccc2c(C3CCN(CCNC(=O)c4ccc(F)cc4)CC3)c(C)[nH]c2c1 [Example 5, N-[β-(4'-(2"-methyl-6"-methoxy-3"-indolyl)-piperidino)-ethyl]-p-fluoro-benzamide]	25	400	17	3							
COc1cc(N)c(Cl)cc1C(=O)NCCN1CCC(c2c[nH]c3ccccc23)CC1 [Example 7, N-[β-(4'-(3"-indolyl)-piperidino)-ethyl]-2-methoxy-4-amino-5-chloro-benzamide]		> 800									
COc1ccc(S(N)(=O)=O)cc1C(=O)NCCN1CCC(c2c[nH]c3ccccc23)CC1 [Example 8, N-[β-(4'-(3"-indolyl)-piperidino)-ethyl]-2-methoxy-5-sulfamoyl-benzamide]		800									
